# Data reported in PubChem BioAssay AID1645865 (Buhrlage Lab, Dana-Farber Cancer Institute and Novartis …, 2021).
# Active and inactive are the calls of the source.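 Rule for the calls: active = maximal inhibition of the USP30 enzyme reaching 30% or more across the dose series; inactive = the rest.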
# Molecular target: Ubiquitin carboxyl-terminal hydrolase 30 (Homo sapiens) (UniProt Q70CQ3)
# Assay: ubiquitin-specific protease 30 DUB inhibitors, concentration-effect, biochemical, validation of primary actives (AID 1645865)
# Details: purified USP30, Ub-rhodamine cleavage, fluorescence, 2 h
# Sequence of Ubiquitin carboxyl-terminal hydrolase 30 (Homo sapiens) (Q70CQ3 whole entry, looked up): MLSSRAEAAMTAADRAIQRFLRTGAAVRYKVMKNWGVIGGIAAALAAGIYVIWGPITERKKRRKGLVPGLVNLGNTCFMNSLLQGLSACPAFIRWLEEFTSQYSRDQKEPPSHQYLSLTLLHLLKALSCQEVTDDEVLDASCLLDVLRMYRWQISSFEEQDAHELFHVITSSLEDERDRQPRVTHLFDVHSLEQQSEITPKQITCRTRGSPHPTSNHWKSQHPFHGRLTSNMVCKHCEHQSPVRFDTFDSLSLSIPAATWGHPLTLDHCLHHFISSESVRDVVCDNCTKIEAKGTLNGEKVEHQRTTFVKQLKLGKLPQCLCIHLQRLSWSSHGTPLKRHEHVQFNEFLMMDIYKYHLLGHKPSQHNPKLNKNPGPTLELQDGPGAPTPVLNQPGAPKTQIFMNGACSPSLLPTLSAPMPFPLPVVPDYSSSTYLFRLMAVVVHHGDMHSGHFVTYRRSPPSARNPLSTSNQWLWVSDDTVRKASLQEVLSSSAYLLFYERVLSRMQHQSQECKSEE
row,Compound,IC50
1,Cc1ccccc1N1C(=O)/C(=C\c2cccn2C)c2ccccc2C1=O,> 50 µM (inactive)
2,COc1ccc(C(=O)Nc2ccc3c(c2)C(=O)N(C)c2ccccc2O3)cc1,> 50 µM (inactive)
3,COc1cc(C(=O)Nc2ccc(-c3csc(C)n3)cc2)cc(OC)c1OC,> 50 µM (inactive)
4,O=C(/C=C/c1cnc2ccccc2c1)NCc1ccccc1,35.1 µM
5,O=C(CSc1cn(Cc2ccccc2)c2ccccc12)Nc1ccc2c(c1)OCCO2,> 50 µM (inactive)
6,Cc1cc(CSc2ncccc2C(=O)Nc2ccnn2Cc2cccnc2)no1,> 50 µM (inactive)
7,Cc1cc(C)nc(-n2nc(C)c3c2NC(=O)CSC3c2ccc(F)cc2F)n1 (configuration not stated),31.3 µM
8,Cc1cc(=O)n(CC(=O)Nc2ccccc2F)c(Nc2ccc(F)cc2)n1,14.2 µM
9,Cc1ccc(-c2nc(Cn3cnc4ccccc4c3=O)cs2)cc1,4.83 µM
10,Cc1ccc(-n2c(=O)c3ccccc3n(Cc3c(F)cccc3Cl)c2=O)cc1,2.25 µM
11,Cn1c(C(=O)NCc2ccccn2)cc2c(=O)[nH]c3ccccc3c21,> 50 µM (inactive)
12,c1ccc(-c2nc(-c3nnn(-c4ccccc4)c3-c3ccncc3)no2)cc1,2.29 µM
13,COc1ccccc1-c1ccc(CN2[C@@H](c3ccccc3)C[C@@H]3NC(=O)CCC[C@H]32)cc1,> 50 µM (inactive)
14,COc1ccc(C)cc1NC(=O)COc1ccc2c(c1)OCO2,> 50 µM (inactive)
15,Cc1ccc(NC(=O)c2cnc3c(c2)c(=O)n(C)c(=O)n3C)cc1,1.71 µM
16,CC1Oc2cc3c(-c4c(O)cc(O)c5c(O)c6c(cc45)OC(C)C(C)C6=O)c(O)cc(O)c3c(O)c2C(=O)C1C (configuration not stated),4.98 µM
17,CCc1ccc(Nc2cc(C(=O)NCCCOC(C)C)c3ccccc3n2)cc1,8.88 µM
18,Cc1cc(C)cc(N(CCC(=O)Nc2ccc(N3CCOCC3)cc2)S(=O)(=O)c2ccc(Cl)cc2)c1,12.3 µM
19,O=C(COc1cccc(C(=O)NCc2ccccc2)c1)Nc1ccc(Oc2ccccc2)cc1,> 50 µM (inactive)
20,COc1cccc(N2CCN(C(=O)C3CCN(c4nc(NC(C)=O)ns4)CC3)CC2)c1,> 50 µM (inactive)
21,O=C(c1cc(-c2ccncc2)n[nH]1)N1CCC(C(=O)N2CC=C(c3ccccc3)CC2)CC1,33.2 µM
22,Cc1ccc2nc(NC(=O)C3CCCN3S(=O)(=O)c3ccc4c(c3)OCCO4)sc2c1 (configuration not stated),> 50 µM (inactive)
23,COC(=O)c1ccc(Cn2cnc3ccc(Br)cc3c2=O)o1,> 50 µM (inactive)
24,NS(=O)(=O)c1cccc(NS(=O)(=O)c2ccc(/C=C/C(=O)OCC(=O)c3ccc(Br)cc3)cc2)c1,> 50 µM (inactive)
25,O=C(Nc1cccc(F)c1)c1ncoc1-c1ccco1,> 50 µM (inactive)

row,Compound,IC50
1,CSc1ccccc1NC(=O)c1ccc(-n2cccn2)nn1,2.32 µM
2,O=C(OCc1ccc(Br)cc1)c1ccc2ccccc2n1,> 50 µM (inactive)
3,Cc1ccc2c(c1C)NC(=O)[C@]21[C@@H]2C(=O)N(c3cc(Cl)ccc3Cl)C(=O)[C@@H]2[C@@H]2CCCN21,> 50 µM (inactive)
4,Cc1c(C)c2ccc(OCC(=O)NCc3ccncc3)c(C)c2oc1=O,31.1 µM
5,FC(F)(F)c1ccccc1CCN1CCc2nc3ncc(Cl)cc3cc2C1,> 50 µM (inactive)
6,O=C(Cc1cccs1)Nc1cc(F)c2nc(N3CCOCC3)ccc2c1,> 50 µM (inactive)
7,Cc1ccc(-n2nnc(C(=O)NC3CCCCC3)c2N)cc1,21.4 µM
8,O=C(Nc1ccc(F)cc1F)NC1Cc2ccccc2C1,29 µM
9,COc1cc(-c2nc(C(N)=O)c3[nH]c(=O)n(-c4ccc(C)cc4)c3n2)cc(OC)c1OC,2.13 µM
10,Nc1ncnc(SCc2ccc(Cl)cc2)n1,17.1 µM
11,COc1ccc(-c2cc3nc([C@H](C)NC(=O)Cc4ccccc4C)nn3cn2)cc1,1.9 µM
12,Cc1ccccc1NC(=O)c1cc(S(=O)(=O)N2CCCCCC2)ccc1Cl,23.8 µM
13,Cc1nc(CN2CCn3c(Cn4cccn4)cnc3C2C)cs1 (configuration not stated),> 50 µM (inactive)
14,CC1=CN2C(=N)/C(=C/c3cn(Cc4ccc(Cl)cc4)c4ccccc34)C(=O)N=C2S1,> 50 µM (inactive)
15,O=C(Nc1ccccc1)c1nc2c(s1)CCN(C(=O)c1ccccc1)CC2,> 50 µM (inactive)
16,COc1ccc(S(=O)(=O)N2CCN3Cc4ccccc4N(C)CC3C2)cc1 (configuration not stated),> 50 µM (inactive)
17,CCOc1ccc(C(=O)Cn2c(=O)n(CC3CCCO3)c(=O)c3cc(OC)c(OC)cc32)cc1Cl (configuration not stated),25.8 µM
18,O=C(CSc1ncnc2c1oc1ccccc12)NC1CCCC1,20.7 µM
19,COc1cccc(-n2cnc3cc(C(=O)NC4CC4)ccc3c2=O)c1,> 50 µM (inactive)
20,CN(C)c1cc(-n2cnc(C(=O)NCc3ccccc3Cl)c2)ncn1,37.8 µM
21,COc1cc(/C=C/C(=O)OCC(=O)Nc2ccc([N+](=O)[O-])cc2OC)ccc1O,28 µM
22,O=C(CC1C(=O)N(Cc2ccccc2)c2nc3ccccc3n21)NCCc1ccccc1 (configuration not stated),19.5 µM
23,CCN(C(=O)c1cc2c(s1)-c1ccccc1OC2)c1ccccc1F,> 50 µM (inactive)
24,O=c1[nH]c(-c2ccccn2)nc2c1CCN(Cc1cnn(-c3ccccc3)c1)C2,> 50 µM (inactive)
25,Cc1cccc(-c2nc3n(CC(=O)Nc4ccc(Cl)cc4)c(C)cc(=O)n3n2)c1,0.179 µM

row,Compound,IC50
1,CN[C@H]1CC2(CCN(C(=O)CCCn3cccn3)CC2)OC[C@]1(C)O,> 50 µM (inactive)
2,COc1c(Cl)ccc2c(=O)c3c(O)c4c5c(c3oc12)OCO[C@H]5[C@@H](OC)c1cc2c(c(O)c1-4)C(=O)N(C)[C@H](OC)[C@@H]2O,4.94 µM
3,c1coc(CNc2nc3ccccc3n3nnnc23)c1,> 50 µM (inactive)
4,Cc1nn(Cc2ccccc2)c(C)c1C(=O)NC1CCCc2ccccc21 (configuration not stated),> 50 µM (inactive)
5,CC(C)c1nc2sc3c(NCc4ccco4)ncnc3c2c2c1CCC2,> 50 µM (inactive)
6,COCCNC(=O)c1ccnn1-c1ccc2ccc(-c3cccnc3)cn12,> 50 µM (inactive)
7,COc1ccc(CCC(=O)Nc2ccc3c(c2)Sc2ncccc2C(=O)N3C)cc1,> 50 µM (inactive)
8,O=c1ccc(-c2noc(Cc3c(F)cccc3Cl)n2)c[nH]1,> 50 µM (inactive)
9,CN1CCC(N(C)S(=O)(=O)c2ccc(NC(=O)c3cccc(OCc4ccccc4)c3)cc2)CC1,34.3 µM
10,O=C(COc1ccc(Cl)cc1Cl)Nc1ccc2[nH]c(=O)[nH]c2c1,4.06 µM
11,O=C(C(c1ccccc1)c1ccccc1)N1CCC(c2nc3c(nnn3Cc3c(F)cccc3Cl)c(=O)[nH]2)CC1,11.5 µM
12,CN(C)c1ccc(CCN2CCc3nc4cccnc4cc3C2)cc1,> 50 µM (inactive)
13,Cc1nnc(NC(=O)C2CCN(c3ccc(S(N)(=O)=O)cc3[N+](=O)[O-])CC2)o1,40.9 µM
14,Cc1noc(C)c1S(=O)(=O)Nc1ccc(C(=O)Nc2ccc3c(c2)OCCO3)cc1,> 50 µM (inactive)
15,Cc1cccc(-n2cnc(C(=O)NCc3ccc(F)cc3)c2)n1,44.9 µM
16,Cn1cc(-c2noc(Cc3cccc(C(F)(F)F)c3)n2)ccc1=O,> 50 µM (inactive)
17,COc1ccc(NC(=O)CC(=O)c2ccc([N+](=O)[O-])cc2)cc1S(=O)(=O)Nc1ccc(Br)cc1,33 µM
18,O=c1oc2ccccc2c2nn(-c3ccccn3)cc12,16.7 µM
19,Cc1ccc(C(=O)Nc2ccc3c(c2)C(=O)N(C)c2ccccc2O3)cc1C,> 50 µM (inactive)
20,Cc1cc(-c2nnc(SCC(=O)Nc3ccc(Br)c(C)c3)n2N)n[nH]1,16.1 µM
21,COc1ccc(-c2cc(C(C)=O)c(C)n2CCC(=O)Nc2ccc(OC)cc2OC)cc1,32.2 µM
22,Cc1ccccc1NC(=O)CNc1nc(Nc2ccccc2)nc(Nc2ccccc2)n1,26.4 µM
23,NS(=O)(=O)c1cc(C(=O)OCC(=O)c2ccc3c(c2)OCCO3)ccc1Cl,> 50 µM (inactive)
24,COc1ccc2ncc3c(-c4ccc(C)cc4)nn(-c4ccc(F)cc4)c3c2c1,1.82 µM
25,Cc1cccc(NC(=O)Cn2c(=O)n(Cc3ccc(F)cc3)c(=O)c3sccc32)c1,2.74 µM

row,Compound,IC50
1,Cc1cccc(C(=O)N2CCc3cc(-c4nc(NC(=O)CNc5ccccc5)sc4C)ccc32)c1,> 50 µM (inactive)
2,O=C1CC(c2ccco2)Cc2[nH]c(=O)c(-c3nc(-c4ccc(Cl)cc4)cs3)cc21 (configuration not stated),> 50 µM (inactive)
3,COc1ccccc1CNC(=O)C1CCCN(c2nc3ccsc3c(=O)s2)C1 (configuration not stated),3.45 µM
4,COc1ccc(-c2ocnc2C(=O)Nc2cccc(Cl)c2C)cc1OC,45.8 µM
5,CN(C)S(=O)(=O)c1ccc(C(=O)Nc2c(C#N)oc3ccccc23)cc1,> 50 µM (inactive)
6,CCCCNc1nc2c(-c3ccccc3)nnn2c2ccccc12,1.73 µM
7,COc1ccc(-c2[nH]c3ccccc3c2SCCNC(=O)c2ccc(S(=O)(=O)N3CCOCC3)cc2)cc1,28.7 µM
8,CCN(CC)c1nc(F)c2c(c1F)S(=O)(=O)CCN2Cc1cccnc1,> 50 µM (inactive)
9,O=C(NC1CCCC1)C1CC(=O)N(c2cccc(-c3noc(-c4cccs4)n3)c2)C1 (configuration not stated),> 50 µM (inactive)
10,CCOC(=O)C1C(c2ccc(Br)cc2)C2(C(=O)c3ccccc3C2=O)C2C=Cc3ccccc3N12 (configuration not stated),> 50 µM (inactive)
11,CSc1cccc(C(=O)Nc2ccc(-c3nc4ccccc4[nH]3)cc2)c1,2.89 µM
12,Cc1cc(C(=O)COC(=O)c2ccc[nH]c2=O)c(C)n1-c1ccc2c(c1)OCO2,> 50 µM (inactive)
13,COc1ccccc1C(=O)N1CCC(S(=O)(=O)c2ccc(-c3ccco3)cc2)CC1,> 50 µM (inactive)
14,O=C(Cn1c(=O)n(CC(=O)NC2CCCC2)c(=O)c2ccccc21)Nc1cc(Cl)ccc1Cl,2.42 µM
15,O=C(OC1CSc2nc3ccccc3n2C1)c1ccc([N+](=O)[O-])o1 (configuration not stated),43.1 µM
16,CC(C)c1ccc(/C=C/C(=O)N2CCc3ccccc3C2)cc1,21.7 µM
17,O=C(CSc1nnc2n1CCCCC2)Nc1ccc2[nH]c(=O)[nH]c2c1,> 50 µM (inactive)
18,CN1CCN(C(=O)c2cc(-c3ccn(-c4ccccc4)n3)n3ccccc23)CC1,> 50 µM (inactive)
19,Cc1nc(-c2ccc(NC(=O)N3CCN(c4ccccn4)CC3)cc2)no1,> 50 µM (inactive)
20,CCC(C)c1ccc(O[C@@H]2O[C@@H]3COC(c4ccccc4)O[C@H]3[C@H](O)[C@H]2NC(C)=O)cc1 (some centres not stated),18.5 µM
21,CN1CC2CN(C(=O)Nc3cccnc3)CCN2Cc2ccccc21 (configuration not stated),> 50 µM (inactive)
22,Cc1cc(C(=O)Nc2ccc3nc(N4CCN(c5ncccn5)CC4)cc(C)c3c2)ccc1[N+](=O)[O-],2.24 µM
